Laboratory results: patent US20130324576A1, “THERAPEUTIC COMPOUNDS” (Takeda Pharmaceutical Company Limited, priority 2012, published 2013)
pIC50: −log10 of the molar value.

Biological target: T1, human PKR1 receptors (Homo sapiens, UniProt Q8TCW9)
T1 construct: expressed in transfected cells; host or cells: RBL2H3 cells (rat basophilic leukaemia line) expressing human PKR1
Assay: PKR1 antagonist assay: block of PK1-mediated intracellular calcium release (FLIPR Tetra, Calcium 5 dye)
Format: cell-based
Conditions: RBL2H3 cells expressing human PKR1; 10 min pre-incubation, stimulation with PK1 at EC80; calcium fluorescence
Experimental: Prokineticin receptor 1 (PKR1) antagonists may be functionally assessed by measurement of change in intracellular calcium levels induced by Gq mediated increase in inositol triphosphate (IP3) levels. The ability of a compound to block the intracellular release of calcium mediated by PK1 in RBL2H3 cells expressing human PKR1 receptors is determined as a measure of the compound's antagonist activity in vitro.
Approximately 10,000 cells per assay well are seeded in normal culture medium in a 384 well plate (Corning). Twenty-four hours after seeding, the cells are loaded with a calcium sensitive fluorescent dye by replacing the culture medium with assay buffer (1× Hanks buffered saline, 25 mM HEPES, 0.1% w/v fatty acid free BSA (bovine serum albumin), pH 7.4) containing 1 mM probenecid and 1× Calcium 5 Reagent (Molecular Devices). Cells are incubated at 37° C. for 1 hour to allow for dye uptake.
To test for antagonist activity, test compounds at a final concentration range between 0.32 nM-10 μM (diluted in assay buffer) are added to the assay wells and allowed to incubate for 10 minutes prior to stimulation with PK1. After incubation with test compounds the assay plate is placed in a FLIPR Tetra (Molecular Devices) and PK1 (diluted in assay buffer) is added at the determined EC80 concentration (final). Ligand-dependent changes in intracellular calcium levels are determined by measuring changes in fluorescence of the dye at […] following excitation at 485 nm.

T1 sequence (Q8TCW9 whole entry): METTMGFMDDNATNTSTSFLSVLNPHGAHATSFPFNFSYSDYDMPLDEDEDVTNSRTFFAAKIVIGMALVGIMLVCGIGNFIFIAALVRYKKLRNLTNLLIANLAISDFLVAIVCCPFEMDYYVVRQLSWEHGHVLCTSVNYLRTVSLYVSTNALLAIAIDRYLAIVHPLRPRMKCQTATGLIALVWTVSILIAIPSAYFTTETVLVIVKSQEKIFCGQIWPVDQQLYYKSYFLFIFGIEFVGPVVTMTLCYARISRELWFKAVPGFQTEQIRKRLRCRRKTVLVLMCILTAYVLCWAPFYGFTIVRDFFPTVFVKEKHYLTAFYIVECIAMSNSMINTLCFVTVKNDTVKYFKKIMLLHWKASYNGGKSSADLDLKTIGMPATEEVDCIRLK

| Structure (SMILES) | pIC50 |
| --- | --- |
| COC(c1ccc(Cl)cc1)C1CCN(S(=O)(=O)c2c(C)n[nH]c2C)CC1 (single isomer, unassigned) [Example 97, 4-((4-Chlorophenyl)(methoxy)methyl)-1-((3,5-dimethyl-1H-pyrazol-4-yl)sulfonyl)piperidine] | 5.34 |
| COC(c1ccc(Cl)cc1)C1CCN(S(=O)(=O)c2c(C)n[nH]c2C)CC1 (single isomer, unassigned) [Example 98, 4-((4-Chlorophenyl)(methoxy)methyl)-1-((3,5-dimethyl-1H-pyrazol-4-yl)sulfonyl)piperidine] | 6.80 |
| Cc1n[nH]c(C)c1S(=O)(=O)N1CCC(C(F)c2ccc(Cl)cc2)CC1 (single isomer, unassigned) [Example 106, 4-((4-Chlorophenyl)fluoromethyl)-1-((3,5-dimethyl-1H-pyrazol-4-yl)sulfonyl)piperidine] | 5.40 |
| Cc1n[nH]c(C)c1S(=O)(=O)N1CCC(C(F)c2ccc(Cl)cc2)CC1 (single isomer, unassigned) [Example 107, 4-((4-Chlorophenyl)fluoromethyl)-1-((3,5-dimethyl-1H-pyrazol-4-yl)sulfonyl)piperidine] | 6.51 |
| Cc1nn(C)c(C)c1S(=O)(=O)N1CCC(Oc2ccc(Cl)c(Cl)c2)CC1 [Example 1, 4-(3,4-Dichlorophenoxy)-1-((1,3,5-trimethyl-1H-pyrazol-4-yl)sulfonyl)piperidine] | 5.85 |
| Cc1n[nH]c(C)c1S(=O)(=O)N1CCC(Oc2ccc(Cl)c(Cl)c2)CC1 [Example 2, 4-(3,4-Dichlorophenoxy)-1-[(3,5-dimethyl-1H-pyrazol-4-yl)sulfonyl]piperidine] | 6.00 |
| Cc1n[nH]c(C)c1S(=O)(=O)N1CCC(Oc2ccc(Cl)cc2)CC1 [Example 8, 4-(4-Chlorophenoxy)-1-[(3,5-dimethyl-1H-pyrazol-4-yl)sulfonyl]piperidine] | 5.84 |
| CCn1nc(C)c(S(=O)(=O)N2CCC(Oc3ccc(C)cc3)CC2)c1C [Example 9, 1-[(1-Ethyl-3,5-dimethyl-1H-pyrazol-4-yl)sulfonyl]-4-(4-methylphenoxy)piperidine] | 5.64 |
| Cc1nn(C)c(C)c1S(=O)(=O)N1CCC(Oc2ccc(Cl)cc2Cl)CC1 [Example 13, 4-(2,4-Dichlorophenoxy)-1-[(1,3,5-trimethyl-1H-pyrazol-4-yl)sulfonyl]piperidine] | 6.10 |
| Cc1nn(C)c(C)c1S(=O)(=O)N1CCC(Oc2ccc(Br)cc2F)CC1 [Example 14, 4-(4-Bromo-2-fluorophenoxy)-1-[(1,3,5-trimethyl-1H-pyrazol-4-yl)sulfonyl]piperidine] | 6.33 |
| Cc1nn(C)c(Cl)c1S(=O)(=O)N1CCC(Oc2ccc(Cl)cc2)CC1 [Example 15, 1-[(5-Chloro-1,3-dimethyl-1H-pyrazol-4-yl)sulfonyl]-4-(4-chlorophenoxy)piperidine] | 5.54 |
| COc1cccc(OC2CCN(S(=O)(=O)c3c(C)nn(C)c3C)CC2)c1 [Example 17, 4-(3-Methoxyphenoxy)-1-[(1,3,5-trimethyl-1H-pyrazol-4-yl)sulfonyl]piperidine] | 5.44 |
| Cc1nn(C)c(C)c1S(=O)(=O)N1CCC(Oc2ccc(Cl)cc2)C(C)C1 (centres unmarked) [Example 21, 4-(4-Chlorophenoxy)-3-methyl-1-[(1,3,5-trimethyl-1H-pyrazol-4-yl)sulfonyl]piperidine] | 5.68 |
| Cc1n[nH]c(C)c1S(=O)(=O)N1CCC(Oc2ccc(Cl)cc2Cl)CC1 [Example 22, 4-(2,4-Dichlorophenoxy)-1-[(3,5-dimethyl-1H-pyrazol-4-yl)sulfonyl]piperidine] | 5.93 |
| Cc1nn(C)c(C)c1S(=O)(=O)N1CCC(Oc2ccc3ccccc3c2)CC1 [Example 23, 4-(Naphthalen-2-yloxy)-1-[(1,3,5-trimethyl-1H-pyrazol-4-yl)sulfonyl]piperidine] | 6.66 |
| Cc1nn(C)c(C)c1S(=O)(=O)N1CCC(Oc2ccc(Cl)cc2)CC1C (centres unmarked) [Example 24, 4-(4-Chlorophenoxy)-2-methyl-1-[(1,3,5-trimethyl-1H-pyrazol-4-yl)sulfonyl]piperidine] | 5.82 |
| Cc1nn(C)c(Cl)c1S(=O)(=O)N1CCC(Oc2ccc(Cl)cc2Cl)CC1 [Example 25, 1-[(5-Chloro-1,3-dimethyl-1H-pyrazol-4-yl)sulfonyl]-4-(2,4-dichlorophenoxy)piperidine] | 5.89 |
| Cc1nn(C)cc1S(=O)(=O)N1CCC(Oc2ccc(Cl)cc2Cl)CC1 [Example 27, 4-(2,4-Dichlorophenoxy)-1-[(1,3-dimethyl-1H-pyrazol-4-yl)sulfonyl]piperidine] | 5.25 |
| CCc1nn(C)c(CC)c1S(=O)(=O)N1CCC(Oc2ccc(Cl)cc2Cl)CC1 [Example 28, 4-(2,4-Dichlorophenoxy)-1-[(3,5-diethyl-1-methyl-1H-pyrazol-4-yl)sulfonyl]piperidine] | 6.49 |
| Cc1nn(C(F)F)c(C)c1S(=O)(=O)N1CCC(Oc2ccc(Cl)cc2Cl)CC1 [Example 29] | 5.96 |
| Cc1nn(C)c(C)c1S(=O)(=O)N1CCC(Oc2ccc(Cl)cc2F)CC1 [Example 30, 4-(4-Chloro-2-fluorophenoxy)-1-(trimethyl-1H-pyrazole-4-sulfonyl)piperidine] | 6.29 |
| Cc1nn(C)c(C)c1S(=O)(=O)N1CCC(Oc2ccc(Cl)cc2C#N)CC1 [Example 31, 5-Chloro-2-{[1-(trimethyl-1H-pyrazole-4-sulfonyl)piperidin-4-yl]oxy}benzonitrile] | 6.51 |
| Cc1n[nH]c(C)c1S(=O)(=O)N1CCC(Oc2ccc(OC(F)(F)F)cc2)CC1 [Example 32, 1-[(3,5-Dimethyl-1H-pyrazol-4-yl)sulfonyl]-4-[4-(trifluoromethoxy)phenoxy]piperidine] | 5.47 |
| Cc1n[nH]c(C)c1S(=O)(=O)N1CCC(Oc2ccc3ccccc3c2)CC1 [Example 33, 1-[(3,5-Dimethyl-1H-pyrazol-4-yl)sulfonyl]-4-(naphthalen-2-yloxy)piperidine] | 6.36 |
| Cc1n[nH]c(C)c1S(=O)(=O)N1CCC(Oc2ccc(Cl)cc2C#N)CC1 [Example 34, 5-Chloro-2-{[1-(3,5-dimethyl-1H-pyrazole-4-sulfonyl)piperidin-4-yl]oxy}benzonitrile] | 6.62 |
| Cc1n[nH]c(C)c1S(=O)(=O)N1CCC(Oc2ccc(Cl)cc2F)CC1 [Example 35, 4-(4-Chloro-2-fluorophenoxy)-1-(3,5-dimethyl-1H-pyrazole-4-sulfonyl)piperidine] | 5.96 |

Second part, the molecule after the results:

| pIC50 | Structure (SMILES) |
| --- | --- |
| 5.85 | Cc1nn(C)c(C)c1S(=O)(=O)N1CCC(Oc2ccc(OC(F)(F)F)cc2)CC1 [Example 3, 4-[4-(Trifluoromethoxy)phenoxy]-1-[(1,3,5-trimethyl-1H-pyrazol-4-yl)sulfonyl]piperidine] |
| 6.09 | Cc1ccc(OC2CCN(S(=O)(=O)c3c(C)nn(C)c3C)CC2)cc1 [Example 4, 4-(4-Methylphenoxy)-1-[(1,3,5-trimethyl-1H-pyrazol-4-yl)sulfonyl]piperidine] |
| 6.28 | Cc1nn(C)c(C)c1S(=O)(=O)N1CCC(Oc2ccc(Cl)cc2)CC1 [Example 5, 4-(4-Chlorophenoxy)-1-[(1,3,5-trimethyl-1H-pyrazol-4-yl)sulfonyl]piperidine] |
| 5.66 | Cc1nn(C)c(C)c1S(=O)(=O)N1CCC(Oc2cccc(Cl)c2)CC1 [Example 6, 4-(3-Chlorophenoxy)-1-[(1,3,5-trimethyl-1H-pyrazol-4-yl)sulfonyl]piperidine] |
| 5.14 | Cc1nn(C)c(C)c1S(=O)(=O)N1CCC(Oc2ccc(C#N)cc2)CC1 [Example 7, 4-({1-[(1,3,5-Trimethyl-1H-pyrazol-4-yl)sulfonyl]piperidin-4-yl}oxy)benzonitrile] |
| 5.77 | Cc1ccc(OC2CCN(S(=O)(=O)c3c(C(F)(F)F)nn(C)c3C)CC2)cc1 [Example 10, 1-{[1,5-Dimethyl-3-(trifluoromethyl)-1H-pyrazol-4-yl]sulfonyl}-4-(4-methylphenoxy)piperidine] |
| 6.07 | Cc1ccc(OC2CCN(S(=O)(=O)c3c(C)nn(C)c3Cl)CC2)cc1 [Example 11, 1-[(5-Chloro-1,3-dimethyl-1H-pyrazol-4-yl)sulfonyl]-4-(4-methylphenoxy)piperidine] |
| 5.33 | Cc1nn(C)c(C)c1S(=O)(=O)N1CCC(Oc2ccc(C(F)(F)F)cc2)CC1 [Example 12, 4-[4-(Trifluoromethyl)phenoxy]-1-[(1,3,5-trimethyl-1H-pyrazol-4-yl)sulfonyl]piperidine] |
| 5.34 | Cc1c(S(=O)(=O)N2CCC(Oc3ccc(Cl)cc3)CC2)c(C(F)(F)F)nn1C [Example 16, 4-(4-Chlorophenoxy)-1-{[1,5-dimethyl-3-(trifluoromethyl)-1H-pyrazol-4-yl]sulfonyl}piperidine] |
| 5.15 | COc1ccc(OC2CCN(S(=O)(=O)c3c(C)nn(C)c3C)CC2)cc1 [Example 18, 4-(4-Methoxyphenoxy)-1-[(1,3,5-trimethyl-1H-pyrazol-4-yl)sulfonyl]piperidine] |
| 5.25 | Cc1nn(C)c(C)c1S(=O)(=O)N1CCC(Oc2ccccc2)CC1 [Example 19, 4-Phenoxy-1-[(1,3,5-trimethyl-1H-pyrazol-4-yl)sulfonyl]piperidine] |
| 5.44 | Cc1nn(C)c(C)c1S(=O)(=O)N1CCC(Oc2ccc(F)cc2)CC1 [Example 20, 4-(4-Fluorophenoxy)-1-[(1,3,5-trimethyl-1H-pyrazol-4-yl)sulfonyl]piperidine] |
